Test results taken from paper PMC10823514, “Target Identification of a Class of Pyrazolone Protein Aggregation Inhibitor Therapeutics for Amyotrophic Lateral Sclerosis” (ACS Central Science, 2023).
Read-outs that look alike come from different tables or passages of the source.

What was measured:
PC12 SOD1^G93A cells [1] = assay: Neuroprotection against MG-132-induced toxicity in PC12 cells expressing mutant SOD1^G93A (calcein-AM viability); assay type: cell-based; details: Rattus norvegicus, PC-12, read-out: EC50 to ameliorate MG132-induced protein aggregation and cellular toxicity
Description: With this information in hand, we implemented a phenotypic drug discovery approach to identify a novel therapeutic for treating ALS. The study employed a rat PC12 cell-based assay that expresses SOD1^G93A mutation for screening a chemical library of more than 50,000 compounds to identify promising hits (Figure 1 compounds 3 and 4). The hits are based on attenuating proteasome inhibitor MG-132-induced SOD1^G93A cellular toxicity.
Viability EC50 values were determined according to the previously reported assay procedure.[43] Briefly, PC12 cells were seeded at 15,000 cells/well in 96-well plates, and the medium was changed to remove the doxycycline 4 days prior to compound addition. Compounds were assayed in 12-point dose–response experiments to determine the potency and efficacy. The highest compound concentration tested was 32 μM, which was decreased by half with each subsequent dose. After a 24 h incubation with the analytes, MG-132 (400 nM) was added and the cells were incubated at 37 °C for 24 h. The cells were washed twice with PBS. Calcein-AM was added at a final concentration of 1 μM for 20 min at room temperature, and the fluorescence intensity was read in a POLARstar fluorescence plate reader (BMG). EC50 values were determined by standardizing fluorescent signal to DMSO treated controls. […] The presented data represent the mean average of duplicate experiments.

PC12 SOD1^G93A cells [2] = details: neuroprotection against MG-132-induced SOD1^G93A toxicity in PC12 cells; leads of the authors' earlier work; read-out: EC50 (NP = neuroprotection); cited from earlier work
14-3-3-E = target: T1, 14-3-3-E (Rattus norvegicus, UniProt P62260); assay: Cellular thermal shift assay (CETSA) in PC12^G93A cell lysate; assay type: binding; details: n = 3
T1 construct: isothermal dose–response (ITDR) CETSA curve of 14-3-3-E at 63 °C (B) in PC12^G93A cell lysate; endogenous in cells; host or cells: PC12-SOD1^G93A YFP cell lysate (freeze/thaw)
T1 sequence (P62260 1-255): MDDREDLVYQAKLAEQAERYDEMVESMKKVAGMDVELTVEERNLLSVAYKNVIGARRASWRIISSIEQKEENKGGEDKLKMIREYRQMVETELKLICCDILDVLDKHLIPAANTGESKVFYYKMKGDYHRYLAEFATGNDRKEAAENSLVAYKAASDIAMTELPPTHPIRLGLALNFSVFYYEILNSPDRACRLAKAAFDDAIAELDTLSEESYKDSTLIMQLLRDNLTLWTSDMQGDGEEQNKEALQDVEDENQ
Description: Before the experiments were initiated, PC12-SOD1^G93A YFP cells were maintained in DMEM high-glucose media supplemented with 10% horse serum, 5% Tet-approved FBS, 1% Pen-strep, 1X L-glutamine, 200 μg/mL hygromycin, and 100 μg/mL G418. On the day preceding the experiments, the cells were plated onto two separate 10 cm dishes at a concentration of 10 × 10^6 cells per 10 mL of the supplemented media. They were then incubated overnight at 37 °C in a CO2 incubator (5% CO2) until they achieved 90–95% confluency.
The cell medium was subsequently removed, and the cells were rinsed with 1X PBS before being detached using 1 mL of 1X trypsin. To this, 5 mL of 1X PBS solution was added, and the cells were then resuspended, transferred to two separate 15 mL conical tubes, and centrifuged at 1100 rpm for 3 min. The supernatant was discarded, and the cells were resuspended in 1 mL of 1X PBS containing a […] (EDTA-free) (Sigma-Aldrich, 1:100 v/v). […]
SDS PAGE was conducted using a 15-well Novex Bis-Tris 4–12% prepacked gel and 1X MES-SDS gel running buffer (comprising 50 mM MES, 50 mM Tris, 1 mM EDTA, and 0.1% SDS) at a constant voltage of […] over a duration of 2 h. […] These raw immunoblot images were analyzed by using ImageJ software. Data (expressed as relative band intensity %) were normalized relative to the samples that were incubated at the lowest temperature. […]

| SMILES | EC50 (PC12 SOD1^G93A cells [1]) [nM] | EC50 (PC12 SOD1^G93A cells [2]) [nM] | CETSA melting curve: 14-3-3-E in the soluble fraction versus DMSO control (14-3-3-E; 500 μM P2, cell lysate, difference between 60 and 64 °C, maximum at 63 °C) | ITDR CETSA: relative band intensity of 14-3-3-E in the soluble fraction (14-3-3-E; 63 °C, increasing concentrations, cell lysate) |
| --- | --- | --- | --- | --- |
| C#CCN(Cc1cc(=O)[nH][nH]1)Cc1c(F)c(F)c(N=[N+]=[N-])c(F)c1F [PRAPP, 5-(((4-Azido-2,3,5,6-tetrafluorobenzyl)(prop-2-yn-1-yl)amino)methyl)-1,2-dihydro-3H-pyrazol-3-one] | 190 | – | – | – |
| O=c1cc(COc2cc(Cl)cc(Cl)c2)[nH][nH]1 [P2] | – | 67 | markedly reduced the presence of 14-3-3-E in the soluble fraction | clear decrease in the relative band intensity of 14-3-3-E |
